Type in all cases: nucleic-acid assay
Holding throughout (set-up): scale not given: the % may be the effect or the level left
Common to all, as to settings: Escherichia coli

Experiment [1] deals with Nucleic Acid. The experiment is described as follows: DNA photocleavage activity assessed as pBluescript form II levels at 1 uM by plasmid DNA relaxation assay.
The subject of experiment [2] is Nucleic Acid. Description: DNA photocleavage activity assessed as pBluescript form II levels at 10 uM by plasmid DNA relaxation assay.
Experiment [3] deals with Nucleic Acid. Description: DNA photocleavage activity assessed as pBluescript form II levels at 5 uM by plasmid DNA relaxation assay.
The test system of experiment [4] is Nucleic Acid. The experiment is described as follows: DNA photocleavage activity assessed as pBluescript form II levels at 20 uM by plasmid DNA relaxation assay.

Consider 1 molecule from ChEMBL document CHEMBL1140641, “Novel ebselen-porphyrin conjugates: synthesis and nucleic acid interaction study” (Bioorg Med Chem Lett, 2007).

Take `O=c1c2ccccc2[se]n1-c1ccc(-c2c3nc(c(-c4ccccc4)c4ccc([nH]4)c(-c4ccccc4)c4nc(c(-c5ccccc5)c5ccc2[nH]5)C=C4)C=C3)cc1`: the Activity with Nucleic Acid [1] turned out to be 12%; with Nucleic Acid [2], 18%; in the experiment on Nucleic Acid [3] it was 16%; with Nucleic Acid [4], 21%.
